Measurements reported in patent US20250345512A1, “COMBINATION SODIUM-GLUCOSE COTRANSPORTER INHIBITOR (SGLTI) INSULIN THERAPY FOR GLYCEMIC CONTROL IN TYPE 1 DIABETES” (University of Virginia Patent Foundation, priority 2022, published 2025).

System: participants with T1D
Parameters: species or system human
Settings: in vivo
Experimental: FIG. 2 presents a study analysis relative to baseline, control IQ (CIQ) (e.g., AID), and basal IQ (BIQ) (e.g., PLGS) implementation, according to investigation that is demonstrable of one or more embodiments herein. Therein, an experimental arm (G1, G2) providing an initial daily dose of 5 mg empagliflozin (EMPA) is depicted against a control arm (G3, G4) without such dosing (NOEMPA). Relative characteristics of the analysis are provided below.
Study Design: A single-center, randomized, controlled, unblinded, crossover clinical trial (NCT04201496) compared four parallel groups, two groups in the experimental arm (EMPA) with 5 mg daily empagliflozin as adjunctive therapy to PLGS or AID, and two groups in the control arm (NOEMPA) with no drug and with a PLGS system (Basal-IQ, Tandem Diabetes Care) or AID system (Control-IQ, Tandem Diabetes Care). […] A tolerance to the medication was assessed prior to the starting of the next study phase, including adherence to the protocol, ketone testing 2-4 times per day with monitored values not greater than 0.6 mmol/L on at least two successive occasions (the first testing upon waking in a fasted state), no adverse events relating to perineal infection or symptomatic postural hypotension, and no evidence of significant hypoglycemia <54 mg/dL, or any other listed adverse effects of the medication. […]

OC[C@H]1O[C@@H](c2ccc(Cl)c(Cc3ccc(O[C@H]4CCOC4)cc3)c2)[C@H](O)[C@@H](O)[C@@H]1O [CIQ-EMPA, empagliflozin]
Difference (95% CI): Ketones: 0.02 mmol/L
